Measurements as given in ChEMBL document CHEMBL4831514, “Novel betulin dicarboxylic acid ester derivatives as potent antiviral agents: Design, synthesis, biological evaluation, structure-activity relationship and in-silico study” (Eur J Med Chem, 2021).
Calls of active or inactive are those of the source. The rule behind the calls is not given here.

How the values were obtained:
[1] = (§1) Cytotoxicity against MDCK cells assessed as reduction in cell viability incubated for 72 hrs by MTT assay; format: cell-based, Canis lupus familiaris; conditions: dog, MDCK cells
[2] = tested on: MDCK; assay: as §1; format: cell-based, Canis lupus familiaris; conditions: dog, mdck, 72 h
[3] = tested on: Human alphaherpesvirus 1; assay: Antiviral activity against Human herpesvirus-1 MacIntyre infected in A549 cells assessed as inhibition of viral adsorption at early stage of replication treated for 1 hr during viral infection followed by replacement with fresh medium and measured after 48 hrs by MTT assay; format: functional, organism-based
[4] = tested on: Vesicular stomatitis virus; assay: Antiviral activity against Vesicular stomatitis virus Indiana infected in A549 cells assessed as reduction in virus titer preincubated for 24 hrs followed by viral infection and measured after 72 hrs by microscopic analysis; format: functional, organism-based
[5] = tested on: Enterovirus E; assay: Potency index, ratio of ribavirin EC50 to test compound EC50 for antiviral activity against Enterovirus E LCR-4 infected in A549 cells assessed as reduction in virus titer treated 1 hr post viral infection followed by replacement with fresh medium with compounds and measured after 72 hrs by MTT assay; format: functional
[6] = tested on: Enterovirus E; assay: Antiviral activity against Enterovirus E LCR-4 infected in A549 cells assessed as reduction in virus titer treated 1 hr post viral infection followed by replacement with fresh medium with compounds and measured after 72 hrs by MTT assay; format: functional, organism-based; conditions: LCR-4, A549
[7] = tested on: Enterovirus E; assay: Antiviral activity against Enterovirus E LCR-4 infected in A549 cells assessed as inhibition of viral adsorption at early stage of replication treated for 1 hr during viral infection followed by replacement with fresh medium and measured after 72 hrs by MTT assay; format: functional, organism-based
[8] = tested on: Human adenovirus 5; assay: Antiviral activity against Human adenovirus 5 Adenoid 75 infected in A549 cells assessed as reduction in virus titer preincubated for 24 hrs followed by viral infection and measured after 72 hrs by microscopic analysis; format: functional, organism-based
[9] = Selectivity index, ratio of CC50 for cytotoxicity against human A549 cells to EC50 for antiviral activity against Enterovirus E LCR-4 infected in A549 cells assessed as reduction in virus titer treated 1 hr post viral infection followed by replacement with fresh medium with compounds and measured after 72 hrs by MTT assay; format: toxicity, cell-based; conditions: read-out: Selectivity Index
[10] = tested on: Human alphaherpesvirus 1; assay: Antiviral activity against Human herpesvirus 1 MacIntyre infected in A549 cells assessed as reduction in virus titer preincubated for 24 hrs followed by viral infection and measured after 72 hrs by microscopic analysis; format: functional, organism-based
[11] = tested on: Human adenovirus 5; assay: Antiviral activity against Human adenovirus 5 Adenoid 75 infected in A549 cells assessed as inhibition of viral adsorption at early stage of replication treated for 1 hr during viral infection followed by replacement with fresh medium and measured after 72 hrs by MTT assay; format: functional, organism-based
[12] = tested on: A549; assay: (§2) Cytotoxicity against human A549 cells assessed as reduction in cell viability incubated for 48 hrs by MTT assay; format: cell-based; conditions: a549, 48 h
[13] = as §2; format: cell-based; conditions: A549 cells
[14] = tested on: Human alphaherpesvirus 1; assay: Antiviral activity against Human herpesvirus 1 MacIntyre infected in A549 cells assessed as reduction in virus titer treated 1 hr post viral infection followed by replacement with fresh medium with compounds and measured after 48 hrs by MTT assay; format: functional, organism-based; conditions: Human alphaherpesvirus 1, MacIntyre
[15] = Selectivity index, ratio of CC50 for cytotoxicity against human A549 cells to EC50 for antiviral activity against Human herpesvirus 1 MacIntyre infected in A549 cells assessed as reduction in virus titer treated 1 hr post viral infection followed by replacement with fresh medium with compounds and measured after 72 hrs by MTT assay; format: toxicity, cell-based; conditions: read-out: Selectivity Index
[16] = tested on: Human alphaherpesvirus 1; assay: Potency index, ratio of acyclovir EC50 to test compound EC50 for antiviral activity against Human herpesvirus 1 MacIntyre infected in A549 cells assessed as reduction in virus titer treated 1 hr post viral infection followed by replacement with fresh medium with compounds and measured after 48 hrs by MTT assay; format: functional
[17] = Selectivity index, ratio of CC50 for cytotoxicity against human A549 cells to EC50 for antiviral activity against Enterovirus E LCR-4 infected in A549 cells; format: toxicity, cell-based; conditions: read-out: Selectivity Index
[18] = tested on: Enterovirus E; assay: Antiviral activity against Enterovirus E LCR-4 infected in A549 cells assessed as reduction in virus titer preincubated for 24 hrs followed by viral infection and measured after 72 hrs by microscopic analysis; format: functional, organism-based; conditions: LCR-4, A549
[19] = tested on: Enterovirus E; assay: Potency index, ratio of […] EC50 to test compound EC50 for antiviral activity against Enterovirus E LCR-4 infected in A549 cells assessed as reduction in virus titer preincubated for 24 hrs followed by viral infection and measured after 72 hrs by microscopic analysis; format: functional; conditions: time 96 hrs

| Structure (SMILES) | CC50 at 72 h [1] [µM] | CC20 [2] [µM] | Activity [3] | Activity [4] | Ratio EC50 [5] | EC50 [6] [µM] | Activity [7] | Activity [8] | selectivity ratio at 72 h [9] | Activity [10] | Activity [11] | CC20 [12] [µM] | CC50 at 48 h [13] [µM] | EC50 [14] [µM] | selectivity ratio at 72 h [15] | Ratio EC50 [16] | selectivity ratio [17] | EC50 [18] [µM] | Ratio EC50 [19] |
| --- | --- | --- | --- | --- | --- | --- | --- | --- | --- | --- | --- | --- | --- | --- | --- | --- | --- | --- | --- |
| CCOC(=O)C1=C[C@@H](OC(CC)CC)[C@H](NC(C)=O)[C@@H](N)C1 [OSELTAMIVIR] | 7870 | 320.51 | – | – | – | – | – | – | – | – | – | – | – | – | – | – | – | – | – |
| C=C(C)[C@@H]1CC[C@]2(COC(=O)CCCCCCCCCC(=O)O)CC[C@]3(C)[C@H](CC[C@@H]4[C@@]5(C)CC[C@H](O)C(C)(C)[C@@H]5CC[C@]43C)[C@@H]12 | – | 10.2 | inactive | inactive | 10 | 10.3 | inactive | inactive | 2.9 | inactive | inactive | 5.09 | 29.4 | – | – | – | – | – | – |
| C=C(C)[C@@H]1CC[C@]2(COC(=O)c3ccccc3C(=O)N3CCOCC3)CC[C@]3(C)[C@H](CC[C@@H]4[C@@]5(C)CC[C@H](O)C(C)(C)[C@@H]5CC[C@]43C)[C@@H]12 | – | 143.47 | inactive | inactive | – | – | inactive | inactive | – | inactive | inactive | 35.87 | 144 | 35.9 | 4 | 3 | – | – | – |
| C=C(C)[C@@H]1CC[C@]2(COC(=O)c3cccc(C(=O)N4CCCCC4)c3)CC[C@]3(C)[C@H](CC[C@@H]4[C@@]5(C)CC[C@H](O)C(C)(C)[C@@H]5CC[C@]43C)[C@@H]12 | – | 130.89 | inactive | inactive | – | – | inactive | inactive | – | inactive | inactive | 130.89 | 536 | – | – | – | 8.2 | 65.4 | 3 |
| NC(=O)c1ncn([C@@H]2O[C@H](CO)[C@@H](O)[C@H]2O)n1 [RIBAVIRIN] | – | – | inactive | – | – | 102 | inactive | – | 74.3 | – | inactive | 409.84 | 7610 | – | – | – | – | – | – |
| C=C(C)[C@@H]1CC[C@]2(COC(=O)c3ccccc3C(=O)N3CCSCC3)CC[C@]3(C)[C@H](CC[C@@H]4[C@@]5(C)CC[C@H](O)C(C)(C)[C@@H]5CC[C@]43C)[C@@H]12 | – | 7.3 | inactive | inactive | – | – | inactive | inactive | – | inactive | inactive | 58.9 | 350 | 29.6 | 11.8 | 3 | – | – | – |
| C=C(C)[C@@H]1CC[C@]2(COC(=O)CCCCCCCCCC(=O)N3CCOCC3)CC[C@]3(C)[C@H](CC[C@@H]4[C@@]5(C)CC[C@H](O)C(C)(C)[C@@H]5CC[C@]43C)[C@@H]12 | – | 139.08 | inactive | inactive | – | – | inactive | inactive | – | inactive | inactive | 34.77 | 164 | 34.8 | 4.7 | 3 | – | – | – |
| C#CC1(NC(=O)/C(C)=C/C(=O)OC[C@]23CC[C@@H](C(=C)C)[C@@H]2[C@H]2CC[C@@H]4[C@@]5(C)CC[C@H](O)C(C)(C)[C@@H]5CC[C@@]4(C)[C@]2(C)CC3)CCCCC1 | 54.5 | 54.47 | inactive | inactive | – | – | inactive | inactive | – | inactive | inactive | 54.47 | – | – | – | – | – | – | – |
| C#CCNC(=O)c1ccccc1C(=O)OC[C@]12CC[C@@H](C(=C)C)[C@@H]1[C@H]1CC[C@@H]3[C@@]4(C)CC[C@H](O)C(C)(C)[C@@H]4CC[C@@]3(C)[C@]1(C)CC2 | – | 159.24 | inactive | inactive | – | – | inactive | inactive | – | inactive | inactive | 39.81 | 159 | – | – | – | 8 | 19.9 | 11 |
| C=C(C)[C@@H]1CC[C@]2(COC(=O)/C=C(\C)C(=O)N3CCCCC3)CC[C@]3(C)[C@H](CC[C@@H]4[C@@]5(C)CC[C@H](O)C(C)(C)[C@@H]5CC[C@]43C)[C@@H]12 | – | 4.26 | inactive | inactive | – | – | inactive | inactive | – | inactive | inactive | 34.34 | 68.7 | 17.2 | 4 | 3 | – | – | – |
| C=C(C)[C@@H]1CC[C@]2(COC(=O)CSCC(=O)O)CC[C@]3(C)[C@H](CC[C@@H]4[C@@]5(C)CC[C@H](O)C(C)(C)[C@@H]5CC[C@]43C)[C@@H]12 | 42.2 | 21.08 | inactive | inactive | – | – | inactive | inactive | – | inactive | inactive | 21.08 | – | – | – | – | – | – | – |
| Nc1nc2c(ncn2COCCO)c(=O)[nH]1 [ACYCLOVIR] | – | – | inactive | – | – | – | inactive | – | – | – | inactive | 196.08 | 1560 | 111 | 14 | – | 7 | – | – |
